This note sets out measurements from patent publication US7932262B2 (Novartis AG, priority 2006, dated 2011).

The structures appear in SMILES notation. Where two headings read alike, the source gives them in different places.

In assay [1] the target is T1, PDK1 kinase (Homo sapiens, UniProt O15530).
T1 sequence (O15530 1-556): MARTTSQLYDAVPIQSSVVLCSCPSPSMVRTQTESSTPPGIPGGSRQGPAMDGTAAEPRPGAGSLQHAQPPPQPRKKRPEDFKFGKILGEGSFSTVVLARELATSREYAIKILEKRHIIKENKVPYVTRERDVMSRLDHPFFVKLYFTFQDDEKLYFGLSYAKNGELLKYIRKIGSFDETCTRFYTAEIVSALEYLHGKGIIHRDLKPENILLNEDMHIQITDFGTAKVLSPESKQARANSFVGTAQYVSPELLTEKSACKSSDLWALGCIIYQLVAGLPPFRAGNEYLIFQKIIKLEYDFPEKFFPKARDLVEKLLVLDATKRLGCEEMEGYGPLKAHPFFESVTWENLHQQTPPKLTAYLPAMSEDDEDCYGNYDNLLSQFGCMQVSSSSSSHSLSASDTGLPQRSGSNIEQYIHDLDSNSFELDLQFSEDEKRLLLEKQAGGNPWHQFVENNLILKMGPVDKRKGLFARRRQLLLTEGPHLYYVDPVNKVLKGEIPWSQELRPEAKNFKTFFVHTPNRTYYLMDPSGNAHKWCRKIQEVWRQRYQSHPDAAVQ
Kind of assay: PDK1 Kinase Alpha Screen Assay. The conditions noted are these: PDK1 Kinase Alpha Screen Assay; read-out: PDK1 IC50. It is filed as biochemical. The method, boiled down:
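Compound in DMSO added to PDK1-4 peptide; PDK1/ATP mix starts reaction (final 50 nM peptide, 10 uM ATP). Runs 3-18 hours, stopped with 90 mM EDTA buffer. Antibody/bead mix added, developed overnight at room temperature, then AlphaScreen signal read.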

Assay [2] has as its system PC-3 cells. Kind of assay: Cell Proliferation Assay (Cell Titer Glo), PC-3 cell line. The conditions noted are these: PC3, read-out: CPEC50 PC3. It is filed as cell-based. The method, boiled down:
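PC-3 cells, 1000 cells/well, left to adhere 3-5 h, then exposed for 3 days at 37° C to compounds as 1:3 serial dilutions from 500× DMSO stocks diluted in growth medium. Medium then replaced with fresh medium and viability read by Cell Titer Glo luminescence.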
For orientation: Cellular ATP, detected with luciferase, serves as a proxy for viable cell number.

The mark [3] stands for this setting: Homo sapiens, PC-3, Cell Proliferation Assay.

As a reminder, the IC50 is the midpoint of a concentration-inhibition curve.

As for `COc1cc(C(=O)NC2CCN(C)CC2)ccc1Nc1ncc2c(C)ccc(OC3CCNCC3)c2n1` [Compound 375, 3-methoxy-4-(5-methyl-8-(piperidin-4-yloxy)quinazolin-2-ylamino)-N-(1-methylpiperidin-4-yl)benzamide], in assay [1], the IC50 was in the range of 5 to 10 µM. Moreover, in assay [2] (setting [3]), the EC50 lay within 5 to 10 µM.

For `CN1CCC(Nc2ccc(Cl)c3cnc(Nc4ccc(C(=O)N5CCOCC5)cc4)nc23)CC1` [Compound 377, (4-(5-chloro-8-(1-methylpiperidin-4-ylamino)quinazolin-2-ylamino)phenyl) (morpholino)methanone], in assay [1], the IC50 was less than 5 µM. Besides, the EC50 in assay [2] (setting [3]) was less than 5 µM.

Consider `O=C(c1ccc(Nc2ncc3c(Cl)ccc(OC4CCNCC4)c3n2)cc1F)N1CCOCC1` [Compound 378, (4-(5-chloro-8-(piperidin-4-yloxy)quinazolin-2-ylamino)-2-fluorophenyl)(morpholino)methanone], for which, in assay [1], the 50% inhibitory concentration (IC50) was less than 5 µM. Also, the EC50 in assay [2] (setting [3]) is less than 5 µM.

In the case of `CC(C)NC(=O)c1ccc(Nc2ncc3c(Cl)ccc(OC4CCNCC4)c3n2)cc1F` [Compound 379, 4-(5-chloro-8-(piperidin-4-yloxy)quinazolin-2-ylamino)-2-fluoro-N-isopropylbenzamide], the IC50 in assay [1] is less than 5 µM. Moreover, the EC50 in assay [2] (setting [3]) was less than 5 µM.

On to `COc1cccc(Nc2ncc3c(Cl)ccc(OC4CCNCC4)c3n2)c1` [Compound 380, 5-chloro-N-(3-methoxyphenyl)-8-(piperidin-4-yloxy)quinazolin-2-amine], for which, in assay [1], the IC50 is less than 5 µM. In assay [2] (setting [3]), the EC50 was less than 5 µM.

Consider `NC(=O)c1cc(Nc2ncc3c(Cl)ccc(OC4CCNCC4)c3n2)cc(C(F)(F)F)c1` [Compound 381, 3-(5-chloro-8-(piperidin-4-yloxy)quinazolin-2-ylamino)-5-(trifluoromethyl)benzamide], for which the IC50 in assay [1] was less than 5 µM. The EC50 in assay [2] (setting [3]) was less than 5 µM.

On to `CC(=O)Nc1cc(NC(C)=O)cc(Nc2ncc3c(Cl)ccc(OC4CCNCC4)c3n2)c1` [Compound 382, N,N′-(5-(5-chloro-8-(piperidin-4-yloxy)quinazolin-2-ylamino)-1,3-phenylene)diacetamide], for which the IC50 in assay [1] is less than 5 µM. For the same molecule, the EC50 in assay [2] (setting [3]) lay in the range of 5 to 10 µM.

Consider `COc1ccc(C(F)(F)F)c2cnc(Nc3ccc(C(=O)N4CCOCC4)cc3)nc12` [Compound 383], for which the IC50 in assay [1] was less than 5 µM. Moreover, in assay [2] (setting [3]), the EC50 lay within 5 to 10 µM.

For `FC(F)(F)c1ccc(OC2CCNCC2)c2nc(Nc3ccc(N4CCOCC4)cc3)ncc12` [Compound 384, N-(4-morpholinophenyl)-8-(piperidin-4-yloxy)-5-(trifluoromethyl)quinazolin-2-amine], the IC50 in assay [1] is less than 5 µM. The EC50 in assay [2] (setting [3]) lay in the range of 5 to 10 µM.

Turning to `FC(F)(F)c1ccc(OC2CCNCC2)c2nc(Nc3ccc(N4CCOCC4)cc3)ncc12` [Compound 385, N-(4-morpholinophenyl)-8-(piperidin-4-yloxy)-5-(trifluoromethyl)quinazolin-2-amine], in assay [1], the IC50 is less than 5 µM. The EC50 in assay [2] (Cell Proliferation Assay) is less than 5 µM.

As for `CC(C)N1CCC(Oc2cc(Br)cc3cnc(Nc4ccc(F)cc4)nc23)CC1` [Compound 389, 6-bromo-N-(4-fluorophenyl)-8-(1-isopropylpiperidin-4-yloxy)quinazolin-2-amine], the IC50 in assay [1] is less than 5 µM. Moreover, in assay [2] (setting [3]), the EC50 is less than 5 µM.

On to `Cc1ccc(C(=O)O)cc1-c1ccc2cnc(Nc3ccc(S(N)(=O)=O)cc3)nc2c1` [Compound 390, 4-methyl-3-(2-(4-sulfamoylphenylamino)quinazolin-7-yl)benzoic acid], for which, in assay [1], the IC50 is less than 5 µM. Moreover, the EC50 in assay [2] (setting [3]) was in the range of 5 to 10 µM.

As to `c1cc(-c2ccc(NCCN3CCCC3)nc2)c2nc(Nc3ccc4[nH]cnc4c3)ncc2c1` [Compound 393, N-(1H-benzo[d]imidazol-5-yl)-8-(6-(2-(pyrrolidin-1-yl)ethylamino)pyridin-3-yl)quinazolin-2-amine], the IC50 in assay [1] was less than 5 µM. The EC50 in assay [2] (setting [3]) is less than 5 µM.

With `COc1cccc(Nc2ncc3cccc(-c4ccc(NCCN5CCCC5)nc4)c3n2)c1` [Compound 395, N-(3-methoxyphenyl)-8-(6-(2-(pyrrolidin-1-yl)ethylamino)pyridin-3-yl)quinazolin-2-amine], the IC50 in assay [1] is less than 5 µM. The EC50 in assay [2] (setting [3]) was less than 5 µM.

Take `CC(=O)Nc1ccc(Nc2ncc3cccc(-c4ccc(NCCN5CCCC5)nc4)c3n2)cc1` [Compound 396, N-(4-(8-(6-(2-(pyrrolidin-1-yl)ethylamino)pyridin-3-yl)quinazolin-2-ylamino)phenyl)acetamide]: in assay [1], the IC50 was less than 5 µM. The EC50 in assay [2] (setting [3]) was in the range of 5 to 10 µM.

As for `N#Cc1cccc(Nc2ncc3cccc(-c4ccc(NCCN5CCCC5)nc4)c3n2)c1` [Compound 397, 3-(8-(6-(2-(pyrrolidin-1-yl)ethylamino)pyridin-3-yl)quinazolin-2-ylamino)benzonitrile], in assay [1], the IC50 is less than 5 µM. In addition, the EC50 in assay [2] (setting [3]) was less than 5 µM.

Consider `Clc1cccc(Nc2ncc3cccc(-c4ccc(NCCN5CCCC5)nc4)c3n2)c1` [Compound 398, N-(3-chlorophenyl)-8-(6-(2-(pyrrolidin-1-yl)ethylamino)pyridin-3-yl)quinazolin-2-amine], for which the concentration for half-maximal inhibition (IC50) in assay [1] is less than 5 µM. Further, the EC50 in assay [2] (setting [3]) was less than 5 µM.

`O=S(=O)(c1cccc(Nc2ncc3cccc(-c4ccc(NCCN5CCCC5)nc4)c3n2)c1)N1CCOCC1` [Compound 399, N-(3-(morpholinosulfonyl)phenyl)-8-(6-(2-(pyrrolidin-1-yl)ethylamino)pyridin-3-yl)quinazolin-2-amine]: in assay [1], the IC50 was less than 5 µM. Besides, in assay [2] (setting [3]), the EC50 is less than 5 µM.

Regarding `CNC(=O)Cc1ccc(Nc2ncc3cccc(-c4ccc(NCCN5CCCC5)nc4)c3n2)cc1` [Compound 400, N-methyl-2-(4-(8-(6-(2-(pyrrolidin-1-yl)ethylamino)pyridin-3-yl)quinazolin-2-ylamino)phenyl)acetamide], the IC50 in assay [1] is less than 5 µM. The EC50 in assay [2] (setting [3]) was less than 5 µM.

Regarding `CNC(=O)Cc1cccc(Nc2ncc3cccc(-c4ccc(NCCN5CCCC5)nc4)c3n2)c1` [Compound 401, N-methyl-2-(3-(8-(6-(2-(pyrrolidin-1-yl)ethylamino)pyridin-3-yl)quinazolin-2-ylamino)phenyl)acetamide], in assay [1], the IC50 is less than 5 µM. Further, in assay [2] (setting [3]), the EC50 was less than 5 µM.

On to `CS(=O)(=O)c1cccc(Nc2ncc3cccc(-c4ccc(NCCN5CCCC5)nc4)c3n2)c1` [Compound 402, N-(3-(methylsulfonyl)phenyl)-8-(6-(2-(pyrrolidin-1-yl)ethylamino)pyridin-3-yl)quinazolin-2-amine], for which the IC50 in assay [1] was less than 5 µM. The EC50 in assay [2] (setting [3]) was 5 to 10 µM.

Take `O=C(c1ccc(Nc2ncc3cccc(-c4ccc(NCCN5CCCC5)nc4)c3n2)cc1)N1CCOCC1` [Compound 403, morpholino(4-(8-(6-(2-(pyrrolidin-1-yl)ethylamino)pyridin-3-yl)quinazolin-2-ylamino)phenyl)methanone]: in assay [1], the IC50 was less than 5 µM. In addition, the EC50 in assay [2] (setting [3]) was less than 5 µM.

Regarding `NS(=O)(=O)c1ccc(Nc2ncc3cccc(-c4cnc(NCCN5CCCC5)c(C(F)(F)F)c4)c3n2)cc1` [Compound 404, 4-(8-(6-(2-(pyrrolidin-1-yl)ethylamino)-5-(trifluoromethyl)pyridin-3-yl)quinazolin-2-ylamino)benzenesulfonamide], in assay [1], the IC50 is less than 5 µM. Moreover, in assay [2] (setting [3]), the EC50 is less than 5 µM.

For the molecule `COc1ccc(Oc2cccc3cnc(Nc4ccc(S(N)(=O)=O)cc4)nc23)cn1` [Compound 410, 4-(8-(6-methoxypyridin-3-yloxy)quinazolin-2-ylamino)benzenesulfonamide], the IC50 in assay [1] was less than 5 µM. For the same molecule, in assay [2] (setting [3]), the EC50 was less than 5 µM.

For `NS(=O)(=O)c1ccc(Nc2ncc3cccc(Oc4ccc(F)nc4)c3n2)cc1` [Compound 413, 4-(8-(6-fluoropyridin-3-yloxy)quinazolin-2-ylamino)benzenesulfonamide], the IC50 in assay [1] is less than 5 µM. Also, in assay [2] (setting [3]), the EC50 is less than 5 µM.

Consider `Nc1ccc(S(=O)(=O)N(CCN2CCCC2)c2ncc3cccc(OC4CCNCC4)c3n2)cc1` [Compound 422, 4-amino-N-(8-(piperidin-4-yloxy)quinazolin-2-yl)-N-(2-(pyrrolidin-1-yl)ethyl)benzenesulfonamide], for which the IC50 in assay [1] is 5 to 10 µM. Further, the EC50 in assay [2] (setting [3]) lay within 5 to 10 µM.

With `CN1CCN(c2ccc(-c3cccc4cnc(Nc5ccc(N6CCOCC6)nc5)nc34)cn2)CC1` [Compound 423, 8-(6-(4-methylpiperazin-1-yl)pyridin-3-yl)-N-(6-morpholinopyridin-3-yl)quinazolin-2-amine], the IC50 in assay [1] is less than 5 µM. Further, in assay [2] (setting [3]), the EC50 is less than 5 µM.

Consider `c1cc(-c2ccc(NCCN3CCCC3)nc2)c2nc(Nc3ccc(N4CCOCC4)nc3)ncc2c1` [Compound 424, N-(6-morpholinopyridin-3-yl)-8-(6-(2-(pyrrolidin-1-yl)ethylamino)pyridin-3-yl)quinazolin-2-amine], for which, in assay [1], the 50% inhibitory concentration (IC50) is less than 5 µM. Further, the EC50 in assay [2] (setting [3]) is less than 5 µM.
